pIC50: −log10 of the molar value.
What was measured:
[1] = test system: paw edema induced by carageenin; test: Inhibitory activity on paw edema induced by carageenin; type: in vivo, Wistar rats; details: rat, oral, 10 mg/kg, 3 hours after carageenin
Protocol: EXPERIMENT 4: INHIBITORY ACTIVITY ON PAW EDEMA INDUCED BY CARAGEENIN
Wistar rats (body weight: 110-130 g) starved overnight were orally administered with a test drug suspended in 0.5% CMC-Na, and after one hour, 0.1 ml of 1% carageenin solution (picnin-A, Zushi Kagaku) was subcutaneously injected into the right hind leg paw of each rat. Three hours later, the volume of the paw was determined by means of a plethysmometer (Model 7150, Ugo Basile Co.,Ltd.) and the rate of edema was evaluated in comparison with the volume of the paw before the carageenin injection as 100%. Inhibitory rate of each drug-treated group against edema formation was calculated in comparison with the solvent-treated control.

ddY mice = test: Acute toxicity; type: in vivo; details: mouse, oral, 600 mg/kg, observed for 2 weeks
Excerpt: EXPERIMENT 9: ACUTE TOXICITY

cyclooxygenase = biological target: T1, cyclooxygenase (Ovis aries, UniProt P05979); test: Inhibitory activity on cyclooxygenase; type: biochemical; details: PGE2 generation, sheep seminal vesicle microsome, 16 μM 14C-arachidonic acid, pH 8.3
T1 construct: Sheep seminal vesicle microsome fraction (Funakoshi) was used as an enzyme sample; purchased Funakoshi; host or cells: sheep seminal vesicle microsome fraction
T1 sequence (P05979 25-600): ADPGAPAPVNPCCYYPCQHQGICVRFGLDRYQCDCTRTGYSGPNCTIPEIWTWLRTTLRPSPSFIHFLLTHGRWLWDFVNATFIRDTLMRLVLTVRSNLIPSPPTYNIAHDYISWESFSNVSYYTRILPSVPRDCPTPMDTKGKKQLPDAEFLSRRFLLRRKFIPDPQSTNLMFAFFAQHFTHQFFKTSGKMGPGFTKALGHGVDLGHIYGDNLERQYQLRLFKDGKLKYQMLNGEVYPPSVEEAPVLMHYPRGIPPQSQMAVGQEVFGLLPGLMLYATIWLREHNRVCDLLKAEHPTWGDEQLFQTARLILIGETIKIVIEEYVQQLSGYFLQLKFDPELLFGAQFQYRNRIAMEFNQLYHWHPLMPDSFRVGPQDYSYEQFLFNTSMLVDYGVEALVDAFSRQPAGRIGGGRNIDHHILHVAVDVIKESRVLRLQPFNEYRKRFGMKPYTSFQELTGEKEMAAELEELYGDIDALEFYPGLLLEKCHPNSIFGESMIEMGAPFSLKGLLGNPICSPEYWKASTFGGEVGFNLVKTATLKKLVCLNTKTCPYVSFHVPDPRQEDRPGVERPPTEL
Protocol: EXPERIMENT 3: INHIBITORY ACTIVITY ON CYCLOOXYGENASE
Sheep seminal vesicle microsome fraction (Funakoshi) was used as an enzyme sample. A solution of a test drug was mixed with a reaction solution (3 μM epinephrine, 3 mM glutathione, and the enzyme fraction in 100 mM Tris-HCI buffer, pH 8.3). The mixture was pre-incubated at 37° C. for 5 minutes, and then 16 μ M^14 C-arachidonic acid was added to the mixture, which was allowed to react for 3 minutes. After the completion of the reaction, the product was immediately extracted, dissolved in chloroform/methanol (2:1) and developed by thin-layer chromatography. Radioactivity of the prostaglandin E2 (PGE2) fraction was measured using a liquid scintillation counter. Inhibitory rate of each drug-treated group against PGE2 generation was obtained in comparison with the solvent-treated control, and IC50 was calculated according to the probit method.

5-lipoxygenase = biological target: T2, 5-lipoxygenase (Cavia porcellus, UniProt A0A286X958); test: Inhibitory activity on 5-lipoxygenase; type: biochemical, guinea pigs; details: 5-HETE generation, 20 μM 14C-arachidonic acid, pH 7.4, 37° C., 10 minutes
T2 construct: crude enzyme fraction prepared from peritoneal exudated cells of guinea pigs; endogenous in cells; host or cells: guinea pig peritoneal exudate cells (induced by intraperitoneal casein), crude enzyme fraction
T2 sequence (A0A286X958 1-674): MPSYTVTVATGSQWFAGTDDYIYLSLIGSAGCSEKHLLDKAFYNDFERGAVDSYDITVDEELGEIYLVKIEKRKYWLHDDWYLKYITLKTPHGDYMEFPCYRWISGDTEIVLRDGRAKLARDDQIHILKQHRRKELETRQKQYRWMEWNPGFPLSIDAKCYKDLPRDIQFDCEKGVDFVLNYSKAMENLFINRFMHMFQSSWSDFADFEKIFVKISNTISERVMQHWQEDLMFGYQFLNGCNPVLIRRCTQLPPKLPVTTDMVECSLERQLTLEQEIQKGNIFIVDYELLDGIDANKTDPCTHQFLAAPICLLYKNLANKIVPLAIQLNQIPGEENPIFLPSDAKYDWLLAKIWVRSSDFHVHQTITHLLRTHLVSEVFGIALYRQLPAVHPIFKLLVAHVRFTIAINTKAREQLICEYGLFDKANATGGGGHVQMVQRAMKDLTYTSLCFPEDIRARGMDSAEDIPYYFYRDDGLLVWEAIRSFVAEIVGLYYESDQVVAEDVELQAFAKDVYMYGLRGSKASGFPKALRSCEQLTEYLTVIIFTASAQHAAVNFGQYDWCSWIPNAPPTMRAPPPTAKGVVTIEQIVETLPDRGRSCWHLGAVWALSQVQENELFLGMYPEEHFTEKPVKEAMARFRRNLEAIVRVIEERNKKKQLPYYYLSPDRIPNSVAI
Protocol: EXPERIMENT 2: INHIBITORY ACTIVITY ON 5-LIPOXYGENASE
5-Lipoxygenase activity was determined according to the method described by Ochi et al., J. Biol. Chem.,258, p. 5754, 1983 using a crude enzyme fraction prepared from peritoneal exudated cells of guinea pigs which were induced by intraperitoneal injection of 2% case in solution. A solution of a test drug was mixed with a reaction solution (2mM ATP, 1 mM glutathione,and the enzyme fraction in 50 mM phosphate buffer, PH 7.4) and the mixture was pre-incubated at 37° C. for 5 minutes. Calcium chloride (1 mM) and 20 μM^14 C-arachidonic acid were added to the mixture, and then the mixture was subjected to a reaction at 37° C. for 10 minutes. After the completion of the reaction, the product was immediately extracted, dissolved in chloroform/methanol (2:1), and developed by thin-layer chromatography. Radioactivity of the 5-hydroxyeicosatetraenoic acid (5-HETE) fraction was measured using a liquid scintillation counter. Inhibitory rate of each drug-treated group against 5-HETE generation was obtained in comparison with the solvent-treated control, and IC50 was calculated according to the probit method.

[2] = test system: lipid peroxidation (crude homogenate prepared from brain tissues of Wistar rats); test: Inhibitory activity on lipid peroxidation (anti-oxidation activity); type: biochemical; details: rat brain homogenate, 37° C., 30 minutes; malondialdehyde, 532 nm
Protocol: EXPERIMENT 1: INHIBITORY ACTIVITY ON LIPID PEROXIDATION (ANTI-OXIDATION ACTIVITY)
The captioned activity was evaluated according to the method described by Kakihana et al., Nihon Yakurigaku Zasshi (Folia Pharmacologica Japonica), 80, p. 225, 1982. To a 1 ml of a crude homogenate prepared from brain tissues of Wistar rats, 10 μl of a solution of test drug in dimethyl sulfoxide was added, and after pre-incubation under ice-cooling for 10 minutes, the mixture was subjected to a reaction at 37° C. for 30 minutes. The reaction was stopped by adding 200 μl of 35% perchloric acid to the mixture and then the mixture was centrifuged. To a 1 ml of the supernatant obtained, 0.5 ml of 0.5% thiobarbituric acid was added and the mixture was heated under a boiling water bath for 15 minutes. The mixture was cooled to room temperature and absorbance of the mixture at 532 nm was measured. The inhibitory rate was obtained using the amount of malondialdehyde generated by the solvent-treated control, which equals to 100%, and 50% median inhibitory concentration (IC50) was calculated according to the probit method as indexes of anti-oxidation activity.

[3] = test system: auricle edema induced by arachidonic acid; test: Inhibitory activity on auricle edema induced by arachidonic acid; type: in vivo, ddY mice; details: mouse, oral, 1 hour after arachidonic acid
Protocol: EXPERIMENT 5: INHIBITORY ACTIVITY ON AURICLE EDEMA INDUCED BY ARACHIDONIC ACID
[…]. Dermatol. 82, p. 367, 1984. The mice were orally administered with a test drug suspended in 0 5% CMC-Na, and after one hour, 10 μl of arachidonic acid in acetone (50 mg/ml) were applied to front and back surfaces of the left auricles of each mouse. One hours later, the thicknesses of the left and right auricles were measured by means of a dial gauge, and the rate of edema of the left auricle was calculated in comparison with the right auricle (normal). Inhibitory rate of each drug-treated group against edema formation was calculated in comparison with the solvent-treated control.

[4] = test system: auricle edema induced by oxazolone; test: Effect on auricle edema induced by oxazolone (delayed allergy); type: in vivo, ICR mice; details: mouse, oral, 10 mg/kg × 2 (30 minutes before, 6 hours after), 24 hours
Protocol: EXPERIMENT 6: EFFECT ON AURICLE EDEMA INDUCED BY OXAZOLONE (DELAYED ALLERGY)
[…]. The mice were sensitized by the application of 0.1 ml of 0.5% oxazolone in ethanol to shaven abdominal skin. Five days later, inflammation was induced by applying 10 μl of 0.5% oxazolone in acetone to front and back surfaces Of the right auricle. After 24 hours, the thicknesses of the left and right auricles were measured by a dial gauge, and the rate of edema of the right auricle was calculated in comparison with the left auricle (normal). A test drug was suspended in 0.5% CMC--Na and orally administered twice to each mouse , i.e., 30 minutes before and 6 hours after the inflammation-inducing treatment. Inhibitory rate of each drug-treated group against edema was calculated in comparison with the solvent-treated control.

granuloma formation = test: Inhibitory activity on granuloma formation (proliferative inflammation); type: in vivo, Wistar rats; details: rat, oral, 10 mg/kg every day for 8 days
Protocol: EXPERIMENT 7: INHIBITORY ACTIVITY ON GRANULOMA FORMATION (PROLIFERATIVE INFLAMMATION)
Evaluation was carried out by using Wistar rats (120-140 g) according to the method described by Fujiyoshi et al., Nihon Yakurigaku Zasshi (Folia Pharmacologica Japonica), 87, p. 379, 1986. Back skin of the rat was lightly incised under anesthesia with pentobarbital, and filter paper discs for antibiotic assay (57 mg, 13.0.phi., Whatman) sterilized by autoclave were embedded under the skin at the both axillae. 0.1 ml of a mixture of streptomycin and penicillin G (each 1 mg/ml) was administered dropwise to the incised site and the incised skin was sutured. From the day of the disc embedment, a test drug suspended in 0.5% CMC--Na was orally administered to the rat every day for 8 days. The rat was sacrificed at the day of last administration and granuloma including the filter paper was extirpated from the circumferential tissue and dried at 110° C. overnight. The dry weight of the granuloma was measured and inhibitory rate of each drug-treated group against granulation formation was calculated in comparison with the solvent-treated control.

COc1ccc(-c2cc(-c3ccc(C)n3CC(=O)O)oc2-c2ccc(OC)cc2)cc1 [Compound 192]
Inhibition on Edema (%) [1]: 38.4% | Dead Mice/Total Mice (ddY mice): 0/5 | pIC50 (cyclooxygenase): 7.24 | pIC50 (5-lipoxygenase): 6.04

CCOc1ccc(-c2cc(-c3ccc(CC)n3CC(=O)O)oc2-c2ccc(OCC)cc2)cc1 [Compound 217]
pIC50 [2]: 5.61

CCCc1ccc(-c2cc(-c3ccc(OC)cc3)c(-c3ccc(OC)cc3)o2)n1CC(=O)O [Compound 195]
pIC50 (5-lipoxygenase): 6.04 | Inhibition on Edema (%) ([3]; 30 mg/kg): 43.9%

COc1ccc(-c2cc(-c3cccn3CCC(=O)O)oc2-c2ccc(OC)cc2)cc1 [Compound 178]
pIC50 [2]: 5.49

CCc1ccc(-c2cc(-c3ccc(OC)cc3)c(-c3ccc(C)cc3)o2)n1CC(=O)O [Compound 165]
pIC50 [2]: 5.56

CC(C)c1cc(-c2cc(-c3ccccc3)c(-c3ccccc3)o2)n(CC(=O)O)c1 [Compound 117]
Inhibition on Edema (%) [1]: 50.9% | pIC50 [2]: 5.32

CCc1cc(-c2cc(-c3ccc(OC)cc3)c(-c3ccc(OC)cc3)o2)n(CC(=O)O)c1 [Compound 185]
pIC50 (cyclooxygenase): 7.02 | pIC50 (5-lipoxygenase): 6.00 | pIC50 [2]: 5.66

O=C(O)Cn1cccc1-c1cc(-c2ccccc2)c(-c2ccccc2)o1 [Compound 114]
Inhibition on Edema (%) ([3]; 30 mg/kg): 41.9%

CC(C)Cc1ccc(C(C)C(=O)O)cc1 (stereo not drawn) [Ibuprofen, reference compound]
Inhibition on Edema (%) ([3]; 100 mg/kg): 0%

COc1ccc(-c2cc(-c3cccn3C(C)C(=O)O)oc2-c2ccc(OC)cc2)cc1 (stereo not drawn) [Compound 176]
pIC50 (cyclooxygenase): 6.95 | Inhibition on Edema (%) [4]: 56.4% | Inhibition on Edema (%) ([3]; 30 mg/kg): 30.6% | Inhibition on Granuloma (%) (granuloma formation): 32.4% | pIC50 [2]: 5.35

COc1ccc(-c2oc(-c3cccn3CC(=O)O)cc2-c2ccccc2)cc1 [Compound 150]
pIC50 (cyclooxygenase): 7.09

COc1ccc(-c2cc(-c3cccn3CC(=O)O)oc2-c2ccc(OC)cc2)cc1 [Compound 175]
Inhibition on Edema (%) [1]: 44.1% | Dead Mice/Total Mice (ddY mice): 1/5 | pIC50 (cyclooxygenase): 7.16 | Inhibition on Edema (%) [4]: 52.1% | Inhibition on Edema (%) ([3]; 30 mg/kg): 50.6% | Inhibition on Granuloma (%) (granuloma formation): 32.2% | pIC50 [2]: 5.44

COc1ccc(-c2cc(-c3cc(C(C)C)cn3CC(=O)O)oc2-c2ccccc2)cc1 [Compound 142]
Inhibition on Edema (%) [1]: 45.4% | Inhibition on Edema (%) [4]: 62.2%

COc1ccc(-c2oc(-c3cccn3CC(=O)O)c(C)c2-c2ccc(OC)cc2)cc1 [Compound 184]
pIC50 (cyclooxygenase): 7.12 | pIC50 [2]: 5.50

From patent US5321041A, “Diphenylpyrrolylfuran derivatives” (Nihon Iyakuhin Kogyo Co., Ltd., priority 1992, dated 1994)
